What was measured:
Assay type in all cases: cell-based
HeLa (HPV18+) cells = test: Cell proliferation/viability assay, HeLa cells; details: Homo sapiens, 96 h, 4 days
Procedure: (§1) Caski (catalog number CRL-1550), SiHa (catalog number HTB-35), C33A (catalog number HTB-31), Saos-2 (ATCC HTB-85), and Hela (catalog number CCL-2) cells were obtained from the American Type Culture Collection (ATCC). The human cervical carcinoma cell lines Caski. SiHa, Hela and C33A, and the human osteosarcoma cell line Saos-2, and the human keratinocyte cell line HaCaT were cultured in Dulbecco's Modified Eagle Medium (DMEM, Invitrogen catalog number 11965-092) supplemented with 10% fetal bovine serum. The colorectal carcinoma cell line HCT-116 was cultured in Roswell Park Memorial Institute-1640 Medium (Invitrogen catalog number 11875-093) supplemented with 10% FBS. All cells were incubated at 37° C. in a humidified atmosphere with 5% CO2 in air. To establish the SCHPV-18 cell line, one million primary neonatal human foreskin keratinocytes (Invitrogen, catalog no. C-001-5C), cultured in KBM Gold-keratinocvte cell basal medium (Lonza, catalog no. 192060), were electroporated with 5 μg HPV-18 plasmid DNA (ATCC catalog no. 45152D) using the Amaxa Nucleofector II on setting T-007. Cells were co-transfected with 2 μg plasmid pZSGreen1-N1 (Clontech catalog no. 632448) encoding G418 resistance, and cells were selected for four days in 100 μg/ml G418, after which selection was removed. Cells were maintained in culture six months prior to compound testing. Integration of the HPV 18 genome was confirmed by Southern blot. Control cells transfected in parallel with pZSGreen1-N1 alone became senescent four days after selection and the culture could not be expanded. SCHPV-18 cells were maintained in E medium (Fehrmann F, Laimins L A. Human papillomavirus type 31 life cycle: methods for study using tissue culture models. Methods Mol Biol 2005; 292:317-330).
(§2) For proliferation assays, cells were plated in white polystyrene 96-well plates (Costar catalog number 3917) for CellTiter Glo viability assays or 96-well special optics plates (Costar cat #3614) for CellTiter Blue viability assays. Cells were plated in the appropriate growth medium without antibiotics. Two hours after cell plating, a 200× compound stock diluted in DMSO was added to a final concentration of 0.5%. Plates were incubated at 37° C., for 4 days and then cell viability was assessed using either CellTiter Blue (Promega catalog number G8081) or CellTiter Glo (Promega catalog number G7572) according to the manufacturer's instructions. For the CellTiter Blue viability assay, data was collected using the SpectraMax Gemini EM (Molecular Devices) with an excitation wavelength of 530 nm and emission wavelength of 590 nm. For the CellTiter Glo viability assay, data was collected using the Envision Mulitlabel Reader (Perkin Elmer catalog number 2104-0010). To calculate IC50 and EC50 values, percent inhibition curves were fit using a four-parameter logistic formula [y=A+[…]], where A and B denote minimal and maximal % inhibition, respectively, C is the IC50 value, D is the Hill slope, and x represents compound concentration.
(§3) Table C, below, sets out the results obtained employing various compounds of the invention tested for their effects on proliferation of such cells. Caski or SiHa cells, transformed by HPV 16, Hela cells, transformed by HPV 18, or HPV-negative control cell lines (Saos-2 or C33a) were treated with various compounds. […] Unlike the HPV-negative Saos-2 or C33a cell lines, the HPV-transformed cell lines rely on the presence of HPV for their continued proliferation. Therefore, a comparison of IC50 values from HPV-transformed cell lines with IC50 values obtained from HPV-negative cell lines can be used to test for compound selectivity.

SiHa (HPV16+) cells = test: Cell proliferation/viability assay, SiHa cells; details: Homo sapiens, 96 h, 4 days
Procedure: as §1, §2, §3

Caski (HPV16+) cells = test: Cell proliferation/viability assay, Caski cells; details: Homo sapiens, Ca-Ski, 96 h, 4 days
Procedure: as §1, §2, §3

C33A (HPV−) cells = test: Cell proliferation/viability assay, C33A cells; details: Homo sapiens, C-33-A, 96 h, read-out: C33A (HPV−) Proliferation IC50 (μM)
Procedure: as §1, §2, §3

[1] = system: platelet aggregation induced by gamma-thrombin; test: Gamma thrombin induced platelet aggregation assay in platelet rich plasma (PRP); details: human platelet rich plasma
From the text: The compounds of the current invention can be tested in vitro for their ability to inhibit platelet aggregation induced by gamma-thrombin as shown in Example C. Gamma-thrombin, a proteolytic product of alpha-thrombin which no longer interacts with PAR1, selectively cleaves and activates PAR4 (Soslau, G. et al., “Unique pathway of thrombin-induced platelet aggregation mediated by glycoprotein Ib”, J. Biol. Chem., 276:21173-21183 (2001)). Platelet aggregation can be monitored in a 96-well microplate aggregation assay format or using standard platelet aggregometer. […]
The ability of the compounds of the current invention to inhibit platelet aggregation induced by gamma-thrombin was tested in a 96-well microplate aggregation assay format. […] The plate was then placed into a SpcctraMax® Plus Plate Reader (Molecular Devices) at 37° C. Platelet aggregation was monitored at a wavelength of 405 nm using a kinetic analysis mode. […] Inhibition of platelet aggregation (IPA) was calculated based on the formula: % IPA=(100−100*[ODcompound−ODminimum]/[ODmaximum−ODminimum]). The IC50 value of the test compound was calculated by fitting the % IPA values to the one-site concentration response equation: Y=A+(B−A)/{1+(C/X)^D]}, using XLfit for 32 bit Excel® Version 2 Build 30 (ID Business Solutions Limited).

For `COc1ccc(-c2cc(C)cc3nc(OC(F)F)cnc23)cc1` [Example 6, 2-(difluoromethoxy)-5-(4-methoxyphenyl)-7-methylquinoxaline], the IC50 (HeLa (HPV18+) cells) was 10.6 µM, the IC50 (SiHa (HPV16+) cells) was 10.1 µM and the IC50 (Caski (HPV16+) cells) was 7.1 µM. The IC50 (C33A (HPV−) cells) was 44.8 µM and the IC50 [1] was over 30 µM.
